# Results taken from PubChem BioAssay (NCI).
#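 Test compounds were applied to cells in 96-well plates for 48 hours at 5 doses. Here, GI50 denotes the concentration required for 50% inhibition of growth. TGI is the concentration that stops growth completely.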
# Tests used:
# Assay in all cases: inhibition of tumour cell growth, NCI panel, 48 h
# OVCAR-8 ovarian = system: OVCAR-8 ovarian
# HCC-2998 colon = system: HCC-2998 colon
# SK-MEL-2 melanoma = system: SK-MEL-2 melanoma
# HT29 colon = system: HT29 colon
# COLO 205 colon = system: COLO 205 colon
# 786-0 renal = system: 786-0 renal
# U251 CNS = system: U251 CNS
# BT-549 breast = system: BT-549 breast
# MDA-MB-435 = system: MDA-MB-435
# MDA-MB-231 breast = system: MDA-MB-231 breast
Structure (SMILES),GI50 (OVCAR-8 ovarian),TGI (OVCAR-8 ovarian),GI50 (HCC-2998 colon),TGI (HCC-2998 colon),GI50 (SK-MEL-2 melanoma),TGI (SK-MEL-2 melanoma),GI50 (HT29 colon),TGI (HT29 colon),GI50 (COLO 205 colon),TGI (COLO 205 colon),GI50 (786-0 renal),TGI (786-0 renal),GI50 (U251 CNS),TGI (U251 CNS),GI50 (BT-549 breast),TGI (BT-549 breast),GI50 (MDA-MB-435),TGI (MDA-MB-435),GI50 (MDA-MB-231 breast),TGI (MDA-MB-231 breast)
N[C@@H]1CCCC[C@@H]1N.O=C([O-])CN(CP(=O)([O-])[O-])CP(=O)([O-])[O-].[Pt+2],> 100 µM,> 100 µM,> 100 µM,> 100 µM,> 100 µM,> 100 µM,> 100 µM,> 100 µM,50.1 µM,> 100 µM,> 100 µM,> 100 µM,> 100 µM,> 100 µM,,,,,,
COC(=O)/C(=C/c1ccc(OC)cc1)NC(=O)c1ccccc1,,> 100 µM,,> 100 µM,,> 100 µM,,> 100 µM,,,,> 100 µM,,> 100 µM,,,,,,
OCC#Cc1ccccc1C#Cc1ccc(C#Cc2ccccc2C#CCO)s1,21.2 µM,45.6 µM,14.7 µM,28.8 µM,14.6 µM,35.8 µM,,,17.9 µM,48.5 µM,19.3 µM,37.7 µM,20.1 µM,42.3 µM,16.8 µM,33.8 µM,15.1 µM,29.2 µM,18.9 µM,53.5 µM
CC(C)(C)OC(=O)CN1CCc2c(sc3ncnc(N/N=C/c4cccc5ccccc45)c23)C1,2.58 µM,> 33.3 µM,3.6 µM,11.7 µM,5 µM,12.3 µM,3.47 µM,12.3 µM,1.07 µM,3.93 µM,4.11 µM,16.4 µM,3.18 µM,14.6 µM,6.03 µM,> 33.3 µM,2.1 µM,9.83 µM,2.64 µM,9.21 µM
CC(=O)OC1CCC2(C)C(=CCC3C4CCC5(OC6CC(C)CN(C(C)=O)C6C5C)C(C)=C4C(=O)C32)C1 (stereo not drawn),,46.1 µM,,28.8 µM,,31.9 µM,,43.8 µM,,32.4 µM,,72.6 µM,,30.8 µM,,28.6 µM,,32 µM,,33.3 µM
O=[N+]([O-])/C=C\c1c[nH]c2ccc(OCc3ccccc3)cc12,,17.1 µM,,3.66 µM,,24 µM,,,,13.4 µM,,4.56 µM,,19 µM,,,,4.73 µM,,18 µM
O=[N+]([O-])c1ccc(/C=C(/c2ccc([N+](=O)[O-])o2)S(=O)(=O)c2ccccc2)o1,,18.3 µM,,,,35.8 µM,,13.6 µM,,4.67 µM,,14.7 µM,,29.4 µM,,36.2 µM,,29 µM,,16.3 µM
CC1SC(c2c(Cl)cccc2Cl)N(NC(=O)C(O)c2ccccc2)C1=O (stereo not drawn),> 100 µM,> 100 µM,> 100 µM,> 100 µM,> 100 µM,> 100 µM,> 100 µM,> 100 µM,> 100 µM,> 100 µM,> 100 µM,> 100 µM,54.1 µM,> 100 µM,> 100 µM,> 100 µM,43.2 µM,> 100 µM,31.6 µM,> 100 µM
CC(CN1CCN(CC(C)Nc2ccnc3cc(Cl)ccc23)CC1)Nc1ccnc2cc(Cl)ccc12 (stereo not drawn),,> 64 µM,,50.2 µM,25.8 µM,62.7 µM,,> 53.8 µM,,31.8 µM,,33.8 µM,,42.2 µM,,,2.74 µM,9.38 µM,2.72 µM,7.52 µM
COc1cc(NCC2COc3c(ccc(OC)c3OC)C2=O)c([N+](=O)[O-])cc1OC (stereo not drawn),,> 100 µM,,,,> 100 µM,,> 100 µM,,> 100 µM,,> 100 µM,,> 100 µM,,,,> 100 µM,,> 100 µM
Cc1cc(C)c2c(SCc3ccc(Cl)cc3Cl)nc(N)nc2n1,,> 100 µM,,,,> 100 µM,,> 100 µM,,> 100 µM,,41.8 µM,,> 100 µM,,> 100 µM,,> 100 µM,,> 100 µM
Cn1c2ccccc2c(=O)c2c([N+](=O)[O-])ccc(NCCN)c21,,24.5 µM,,21.8 µM,,36 µM,,17.3 µM,,19.3 µM,,20.6 µM,,28.1 µM,,,,,,
c1cc[c]([Sn]([S]c2cccc3cccnc23)([S]c2cccc3cccnc23)[c]2ccccc2)cc1,0.25 µM,0.895 µM,0.17 µM,0.352 µM,0.16 µM,0.538 µM,0.222 µM,0.565 µM,0.136 µM,0.298 µM,0.212 µM,0.502 µM,0.482 µM,1.92 µM,,,,,,
O=C(O)/C(=C\c1ccccc1Cl)S(=O)(=O)c1ccccc1,,> 100 µM,,> 100 µM,,> 100 µM,,> 100 µM,,> 100 µM,,> 100 µM,,> 100 µM,,,,,,
BrC1=CC=C2NCCCCCCN=C3C=CC(Br)=CC=C3NCCCCCCN=C2C=C1,,> 25.5 µM,,> 25.5 µM,,> 25.5 µM,,> 25.5 µM,,,,> 25.5 µM,,> 25.5 µM,,,,,,
CC1(C)CC(=O)C(=[N+]=[N-])C(=O)C1,,,,> 100 µM,,> 100 µM,,> 100 µM,,> 100 µM,,> 100 µM,,,,,,,,
O=C(CNc1ncco1)Nc1ccc(S(=O)(=O)c2ccc(NC(=O)CNc3ncco3)cc2)cc1,2.4 µM,15.7 µM,3.44 µM,16.4 µM,2.49 µM,5.65 µM,,,1.75 µM,3.55 µM,3.95 µM,18.3 µM,1.17 µM,2.48 µM,2.09 µM,6.26 µM,2.08 µM,7.26 µM,2.66 µM,7.38 µM
C1=C(c2ccccc2)SC=C(c2ccccc2)S1,,> 100 µM,,,,,,75.1 µM,,> 100 µM,,> 100 µM,,> 100 µM,,84.8 µM,,32.2 µM,,> 100 µM
Cc1ccc(NC(=O)C2C(=O)N(c3ccc(C)c(C)c3)C(=O)/C2=N\NC(N)=S)cc1C (stereo not drawn),,,,,,> 100 µM,,> 100 µM,,,,> 100 µM,,> 100 µM,,,,,,
